According to US9521848B2, “Tetrazolinone compound and use therefor” (Sumitomo Chemical Company, Limited, priority 2013, dated 2016):

Legend:
[1] = tested on: wheat rust fungus (Puccinia recondita); assay: Wheat rust control test, foliar spray before inoculation (Test Examples 3, 4, Comparative Test Example); format: in vivo; conditions: 200 ppm foliar spray, wheat (SHIROGANE), inoculated 5 days after spraying
Protocol: The control effect was evaluated by visually observing the area of lesion spots on each of test plants at the time of investigation, and comparing the area of lesion spots on a plant treated with the present compound with that on an untreated plant.
Each of plastic pots was filled with sandy loam and wheat (cultivar: SHIROGANE) was sowed and grown in a greenhouse for 9 days. Then, each water dilution containing a surfactant prepared by adjusting so as to contain a predetermined concentration (500 ppm) of any one compound of the present compounds 1, 18, 19, 20, 21, 27, 30, and 38 was sprayed over stems and leaves of the wheat so that it sufficiently adhered to the surface of the leaves of the wheat. After spraying, the plant was air-dried so as to dry the dilution on the surface of the leaves. After spraying, the plant was air-dried and cultivated at 20° C. for 5 days under illumination, and then inoculated by sprinkling with spores of wheat rust fungus (Puccinia recondita). After the inoculation, the plant was left to stand at 23° C. for one day under dark and high humidity condition, and cultivated under illumination at 20° C. for 8 days, and then the area of lesion spots was investigated.
Each of plastic pots was filled with sandy loam and wheat (cultivar: SHIROGANE) was sowed and grown in a greenhouse for 9 days. […]

[2] = tested on: cotton aphid (Aphis gossypii); assay: Cotton aphid control test on cucumber, spray (Test Example 19); format: in vivo; conditions: 500 ppm, 20 mL sprayed on cucumber with 30 aphids; surviving insects counted after 6 days
Protocol: A water dilution (test chemical solution) containing a surfactant prepared by adjusting so as to contain a predetermined concentration (500 ppm) of the present compound 21 was used as a test chemical solution. Thirty (30) heads of cotton aphid (Aphis gossypii) (including adults and larvae) were released on the leaves of cucumber (cultivar; […]) grown in a polyethylene cup until the first true leaf was developed. Next day, 20 mL of the above test chemical solution was sprayed. After 6 days, the number of the surviving insects was counted and the control value was calculated by the following equation. Control value (%)={1-(Cb×Tai)/(Cai×Tb)}×100 wherein symbols in the equation represent the followings: Cb: Number of insects before spraying chemical solution in untreated area; Cai: Number of surviving insects in untreated area; Tb: Number of insects before spraying chemical solution in treated area; and Tai: Number of surviving insects in treated area.

SMILES: Cc1cccc(-n2nnn(C)c2=O)c1COc1cncc(Oc2ccccc2)c1 [1-[2-{5-phenoxypyridin-3-yloxymethyl}-3-methylphenyl]-4-methyl-1,4-dihydrotetrazol-5-one]
- area of lesion spots on the treated plant relative to that on an untreated plant [1]: ≥ 70%

SMILES: Cc1ccc(-c2cnc(OCc3c(C)cccc3-n3nnn(C)c3=O)c(C)c2)cc1 [Present Compound 21]
- control value [2]: ≥ 90%
